Measured values published in paper PMC9636434, “Discovery of small molecule agonists of the Relaxin Family Peptide Receptor 2” (Communications Biology, 2022).
“And” between values parts separate entries of the source, which are not always exact repeats. Equal values may be shown once.

Assays:
human RXFP1 = target: T1, human RXFP1 (Homo sapiens, UniProt Q9HBX9); experiment: HTRF cAMP counter-screen in HEK293T cells expressing human RXFP1; assay type: cell-based; details: human RXFP1, positive control, experiments (1)-(3)
T1 construct: FLAG (N); expressed in transfected cells
T1 sequence (Q9HBX9 1-757): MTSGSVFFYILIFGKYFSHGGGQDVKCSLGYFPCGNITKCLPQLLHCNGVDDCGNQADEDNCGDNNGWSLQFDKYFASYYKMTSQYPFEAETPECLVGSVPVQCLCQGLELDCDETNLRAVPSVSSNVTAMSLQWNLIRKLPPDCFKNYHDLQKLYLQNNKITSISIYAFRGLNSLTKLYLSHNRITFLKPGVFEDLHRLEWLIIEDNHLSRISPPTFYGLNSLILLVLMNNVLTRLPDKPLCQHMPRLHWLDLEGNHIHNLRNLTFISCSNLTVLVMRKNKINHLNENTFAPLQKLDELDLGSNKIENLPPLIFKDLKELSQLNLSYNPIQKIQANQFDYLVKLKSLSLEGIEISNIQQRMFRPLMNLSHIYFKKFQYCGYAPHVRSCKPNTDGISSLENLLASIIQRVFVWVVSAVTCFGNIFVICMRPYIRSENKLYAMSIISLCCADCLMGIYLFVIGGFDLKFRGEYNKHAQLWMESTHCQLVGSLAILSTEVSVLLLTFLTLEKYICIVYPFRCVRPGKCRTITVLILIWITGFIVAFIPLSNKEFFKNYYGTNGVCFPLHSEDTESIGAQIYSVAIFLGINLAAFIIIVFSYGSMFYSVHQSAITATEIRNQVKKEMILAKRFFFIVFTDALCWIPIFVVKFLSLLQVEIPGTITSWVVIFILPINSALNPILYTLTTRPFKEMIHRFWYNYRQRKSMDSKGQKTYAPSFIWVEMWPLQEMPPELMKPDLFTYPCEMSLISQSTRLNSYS
Procedure: (§1) The HTRF Gs dynamic cAMP assay kit (CisBio, Bedford, MA) was used to measure intracellular cAMP accumulation in HEK293T cells (ATCC, Manassas, VA)[56]. […] The cell stock was verified mycoplasma free and authenticated by ATCC. Transient transfection was accomplished by treating cells in a 6-well plate with a mixture of 2 μg plasmid and 6 μL Lipofectamine 2000 (Invitrogen, Waltham, MA) per manufacturer’s protocol and incubating overnight. For cAMP measurement in 96-well format, HEK293T cells stably transfected with human RXFP2 (HEK-RXFP2), human RXFP1 (HEK-RXFP1), mouse Rxfp1 (HEK-Rxfp1) or transiently transfected with human RXFP1-RXFP2 chimeric receptors were seeded between 7500 and 30,000 cells per well, depending on cell line responsiveness, in serum-free DMEM medium and incubated overnight at 37 °C, 5% CO2. After 18 h, cells were treated with a titration of compound, 2 μM forskolin, or DMSO vehicle. Control wells were also treated with a titration of INSL3 (Phoenix Pharmaceuticals, Burlingame, CA) or human recombinant relaxin 2 (Peprotech, Cranbury, NJ). For the RXFP2 antagonist experiment, cells were co-treated with 0.28 μM compound or 30 nM INSL3 and a titration of the INSL3 B dimer antagonist[38],[39]. For the INSL3 allosteric modulation experiment, cells were co-treated with 0.025, 0.0025, or 0.00025 μM of compound and a titration of INSL3. Cells were incubated for 1 h at 37 °C, 5% CO2, and then kit cAMP-d2 and anti-cAMP antibody were added per manufacturer protocol. Plates were incubated for 1 h at room temperature and the signal was read on a CLARIOstar plate reader (BMG Labtech, Ortenberg, Germany) at 665 and 620 nm emission wavelengths. […]
(§2) receptors. HTRF cAMP counter-screen of RXFP2 agonists in HEK293T cells expressing a human RXFP1 and b mouse RXFP1. Relaxin 2 was used as positive control for RXFP1 receptor activation. Results are expressed as mean ± SEM of 3

mouse RXFP1 = target: T2, mouse RXFP1 (Mus musculus, UniProt Q6R6I7); experiment: HTRF cAMP counter-screen in HEK293T cells expressing mouse RXFP1; assay type: cell-based; details: mouse RXFP1, positive control, experiments (1)-(3)
T2 construct: FLAG (N); expressed in transfected cells
T2 sequence (Q6R6I7 1-758): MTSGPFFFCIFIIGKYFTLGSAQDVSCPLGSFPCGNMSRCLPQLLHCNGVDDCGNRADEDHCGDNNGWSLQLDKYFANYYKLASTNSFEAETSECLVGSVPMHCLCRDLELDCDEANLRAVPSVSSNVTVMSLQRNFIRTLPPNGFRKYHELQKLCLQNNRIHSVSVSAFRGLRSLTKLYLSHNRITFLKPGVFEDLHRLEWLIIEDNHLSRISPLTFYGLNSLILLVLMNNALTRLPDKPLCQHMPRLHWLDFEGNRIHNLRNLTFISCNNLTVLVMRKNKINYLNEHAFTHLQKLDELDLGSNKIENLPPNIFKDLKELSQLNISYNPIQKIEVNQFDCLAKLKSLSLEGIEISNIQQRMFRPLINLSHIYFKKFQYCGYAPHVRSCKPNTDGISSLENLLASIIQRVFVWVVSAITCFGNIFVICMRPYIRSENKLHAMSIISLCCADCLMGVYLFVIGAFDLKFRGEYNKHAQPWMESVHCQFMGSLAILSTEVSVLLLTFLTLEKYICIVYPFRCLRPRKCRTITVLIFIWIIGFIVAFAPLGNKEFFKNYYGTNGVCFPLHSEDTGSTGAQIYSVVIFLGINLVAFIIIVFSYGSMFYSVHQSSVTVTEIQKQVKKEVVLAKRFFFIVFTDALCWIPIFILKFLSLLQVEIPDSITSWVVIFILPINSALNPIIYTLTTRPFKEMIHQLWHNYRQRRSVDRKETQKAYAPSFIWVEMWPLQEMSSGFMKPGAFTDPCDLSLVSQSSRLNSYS
Procedure: as §1, §2

[1] = target: chimera RXFP2-1 (extracellular domain of RXFP2, transmembrane domain of RXFP1) (human); set-up: EC50 of the cAMP response (HTRF cAMP assay, transiently transfected HEK293T cells): unit not given beside the values

| Substance | % Eff (cAMP) (human RXFP1; Log [M] -7) | % Eff (cAMP) (human RXFP1; Log [M] -8) | % Eff (cAMP) (human RXFP1; Log [M] -9) | % Eff (cAMP) (human RXFP1; Log [M] -11) | % Eff (cAMP) (mouse RXFP1; Log [M] -7) | % Eff (cAMP) (mouse RXFP1; Log [M] -8) | % Eff (cAMP) (mouse RXFP1; Log [M] -9) | % Eff (cAMP) (mouse RXFP1; Log [M] -10) | % Eff (cAMP) (mouse RXFP1; Log [M] -11) | EC50 of the cAMP response (HTRF cAMP assay, transiently transfected HEK293T cells) [1] | Emax of the cAMP response (HTRF cAMP assay, transiently transfected HEK293T cells; normalized to 2 µM FSK as 100% efficacy) [1] |
| --- | --- | --- | --- | --- | --- | --- | --- | --- | --- | --- | --- |
| Relaxin | 514.186% and 485.16% and 431.341% | 600.088% and 494.195% and 523.956% | 370.096% and 250.531% and 374.784% | -0.2294% and 1.737% and 3.775% | 488.966% and 468.543% and 521.705% | 318.502% and 312.701% and 407.269% | 105.124% and 102.88% and 64.6466% | 7.396% and 8.915% and 6.254% | 0.7539% and 1.08% and 0.2993% | – | – |
| insulin-like factor 3 peptide (INSL3) (ligand) | – | – | – | – | – | – | – | – | – | 0.74 | 92.3 |
